Assay results as given in patent US11530244B2, “Cyclic polypeptides for PCSK9 inhibition” (priority 2018, dated 2022).
Starred links: 1 amine or outer side, 2 acyl side, 3 side chain; linkers in the order of their positions; H or OH if unused. Positions of bridges follow the written chain, without caps; N, C: chain ends. Non-standard residues stand in square brackets, D forms with d. Residues, ends and D or L forms follow the SMILES beside them. X52 = O=C([C@H](Cc1cc2cc(F)ccc2[nH]1)N[*:1])[*:2]; NHCH2C6H4(p)CH2CH2NH = c1cc(CN[*:1])ccc1CCN[*:2]; X58 = O=C([C@@H]1[C@H](OCC=[*:3])CCN1[*:1])[*:2]; Ala(imidazol-2-yl) = N[C@@H](Cc1ncc[nH]1)C(=O)O; Trp(5-F) = N[C@@H](Cc1c[nH]c2ccc(F)cc12)C(=O)O; X55 = O=C(CCCCCC(=O)[*:1])NCc1ccc(CCN[*:2])cc1; X3 = O=C(CCSCc1cc(F)cc(CSCCN[*:1])c1)[*:2]; X33 = CC(C)C(N[*:1])c1ncc(C(=O)[*:2])[nH]1; X57 = O=C([C@@H](CCCCC=[*:3])N[*:1])[*:2]; Lys(Me3) = C[N+](C)(C)CCCC[C@H](N)C(=O)O; X12 = O=C([C@H](CCCCC=[*:3])N[*:1])[*:2]; X4 = O=C(CCSCc1cccc(CSCCN[*:1])c1)[*:2]; X64 = C[C@H](N[*:1])c1ncc(C(=O)[*:2])s1; mXylylene = c1cc(C[*:1])cc(C[*:2])c1; Lys(Me2) = CN(C)CCCC[C@H](N)C(=O)O; Lys(Me) = CNCCCC[C@H](N)C(=O)O; αMeP = C[C@@]1(C(=O)O)CCCN1; Aze = O=C(O)[C@@H]1CCN1; βAla = NCCC(=O)O; Mpa = O=C(O)CCS

What was measured:
[1] = target: human PCSK9 / human LDLR EGFa domain interaction (Homo sapiens (Human), UniProt Q8NBP7); assay: TR-FRET assay of inhibition of the PCSK9-LDLR protein-protein interaction; format: binding; conditions: TR-FRET, 20 nM human PCSK9, 20 nM human LDLR EGFa domain, 2 hours room temperature; read-out: IC50
Chain of human PCSK9 / human LDLR EGFa domain interaction (Q8NBP7 153-692): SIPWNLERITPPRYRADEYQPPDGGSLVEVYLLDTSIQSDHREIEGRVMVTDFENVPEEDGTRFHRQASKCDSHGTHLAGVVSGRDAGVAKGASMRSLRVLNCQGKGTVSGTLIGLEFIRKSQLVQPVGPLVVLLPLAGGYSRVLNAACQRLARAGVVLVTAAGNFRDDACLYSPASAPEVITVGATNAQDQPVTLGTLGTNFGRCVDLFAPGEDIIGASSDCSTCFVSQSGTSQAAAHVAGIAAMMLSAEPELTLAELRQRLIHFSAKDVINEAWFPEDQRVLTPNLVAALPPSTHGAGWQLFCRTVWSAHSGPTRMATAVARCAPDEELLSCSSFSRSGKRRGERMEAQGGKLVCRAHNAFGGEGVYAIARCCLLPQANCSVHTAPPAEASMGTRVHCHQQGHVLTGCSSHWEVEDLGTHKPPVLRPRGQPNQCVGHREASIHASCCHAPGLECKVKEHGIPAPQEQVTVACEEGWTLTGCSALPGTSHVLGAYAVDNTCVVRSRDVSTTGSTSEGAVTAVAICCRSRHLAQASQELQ
Chain of human PCSK9 / human LDLR EGFa domain interaction (Q8NBP7 31-152 partner): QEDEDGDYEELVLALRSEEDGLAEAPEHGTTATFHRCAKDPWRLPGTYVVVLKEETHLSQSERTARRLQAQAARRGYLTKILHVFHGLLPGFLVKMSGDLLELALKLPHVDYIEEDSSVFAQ
Procedure: A time-resolved fluorescence resonance energy (TR-FRET) assay was used to measure inhibition of the PCSK9-LDLR protein-protein interaction. Briefly, 20 nM avitag-biotinylated human PCSK9 was incubated with 20 nM his-tagged human LDLR EGFa domain in the presence of 5 nM LANCE Ulight Streptavidin (Perkin Elmer) and 5 nM europium-Anti-6×His (Perkin Elmer) for 2 hours covered at room temperature in buffer containing 50 mM HEPES, 150 mM NaCl, 5 mM CaCl2), 0.01% BSA and 0.01% Surfactant P20. Compounds were tested in dose-response and concentrations giving half-maximal inhibition calculated using a 4-parameter fit equation.

PCSK9 = PCSK9 (Homo sapiens (Human), UniProt Q8NBP7); assay: PCSK9 Alexa FRET Standard assay (displacement of AlexaFluor647 tagged cyclic peptide Reagent A); format: binding; conditions: PCSK9 Alexa FRET Standard assay, 0.5 nM PCSK9, 20 nM AF cyclic peptide Reagent A; read-out: IC50
Chain of PCSK9 (Q8NBP7 153-692): as the sequence (Q8NBP7 153-692) above
How it was run: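 TR-FRET displacement: 0.5 nM biotinylated PCSK9 with 1.25 nM Strep-Eu and 20 nM AlexaFluor-tagged cyclic peptide (final) in 50 mM HEPES pH 7.4, 0.15 M NaCl, 5 mM CaCl2, 0.01% BSA, 0.01% P20, ≥2 h at room temperature. IC50 from sigmoidal fit, converted to Ki via peptide KD; falling Eu counts flagged false positives.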

SMILES | IC50 [1] | IC50 (PCSK9)
C[C@@H]1NC(=O)[C@@H]2CCN2C(=O)[C@H](Cc2c[nH]c3ccc(F)cc23)NC(=O)[C@H](Cc2c[nH]c3ccc(F)cc23)NC(=O)[C@@H](C)NC(=O)[C@H](CCCCN)NC(=O)CCSCc2cccc(c2)CSCCNC(=O)[C@]2(C)CCCN2C(=O)[C@H](Cc2ccc(O)cc2)NC1=O [Compound 002] (cyclo(AY[αMeP][X4]K[dA][Trp(5-F)][Trp(5-F)][Aze])) | 21000 to 50000 nM | –
COc1ccc(C[C@@H]2NC(=O)CCNC(=O)[C@@H]3CCCN3C(=O)[C@H](Cc3c[nH]c4ccc(F)cc34)NC(=O)[C@H](Cc3cc4cc(F)ccc4[nH]3)NC(=O)[C@@H](C)NC(=O)[C@H](CCCCN)NC(=O)CCSCc3cccc(c3)CSCCNC(=O)[C@]3(C)CCCN3C2=O)cc1 [Compound 003] (cyclo(K[dA][X52][Trp(5-F)]P[βAla]Y(Me)[αMeP][X4])) | 1000 to 12100 nM | –
C[C@@H](O)[C@@H]1NC(=O)[C@@H]2CCCN2C(=O)[C@H](Cc2c[nH]c3ccc(F)cc23)NC(=O)[C@H](Cc2c[nH]c3ccc(F)cc23)NC(=O)CNC(=O)[C@H](CCCCN)NC(=O)CCSCc2cccc(c2)CSC[C@@H](C(N)=O)NC(=O)[C@]2(C)CCCN2C(=O)[C@H](Cc2ccc(O)cc2)NC1=O [Compound 014] ([Mpa]KG[Trp(5-F)][Trp(5-F)]PTY[αMeP]C-NH2; linker 1-10 via mXylylene) | 100 to 1000 nM | –
CC(C)C1NC(=O)CCSCc2cccc(c2)CSC[C@@H](C(N)=O)NC(=O)[C@]2(C)CCCN2C(=O)[C@H](Cc2ccc(O)cc2)NC(=O)[C@H](Cc2c[nH]cn2)NC(=O)[C@H](CC(=O)O)NC(=O)[C@H](Cc2c[nH]c3ccc(F)cc23)NC(=O)[C@H](Cc2c[nH]c3ccc(F)cc23)NC(=O)c2cnc1[nH]2 (stereo partly shown) [Compound 449] ([Mpa][X33][Trp(5-F)][Trp(5-F)]DHY[αMeP]C-NH2; linker 1-9 via mXylylene) | – | 100 to 1000 nM
CC(C)C1NC(=O)CCSCc2cccc(c2)CSC[C@@H](C(N)=O)NC(=O)[C@]2(C)CCCN2C(=O)[C@H](Cc2ccc(O)cc2)NC(=O)[C@H](Cc2c[nH]cn2)NC(=O)[C@H](CC(=O)O)NC(=O)[C@H](Cc2c[nH]c3ccc(F)cc23)NC(=O)[C@H](Cc2c[nH]c3ccc(F)cc23)NC(=O)c2cnc1[nH]2 (stereo partly shown) [Compound 450] ([Mpa][X33][Trp(5-F)][Trp(5-F)]DHY[αMeP]C-NH2; linker 1-9 via mXylylene) | – | 100 to 1000 nM
COc1ccc(C[C@@H]2NC(=O)[C@H](Cc3cnc[nH]3)NC(=O)[C@H](CC(=O)O)NC(=O)[C@H](Cc3c[nH]c4ccc(F)cc34)NC(=O)[C@H](Cc3c[nH]c4ccc(F)cc34)NC(=O)[C@@H](C)NC(=O)[C@H](NC(C)=O)CCC(=O)NCc3ccc(cc3)CCNC(=O)C[C@@H](C(N)=O)NC(=O)[C@]3(C)CCCN3C2=O)cc1 [Compound 451] (Ac-[dE][dA][Trp(5-F)][Trp(5-F)]DHY(Me)[αMeP]D-NH2; linker 1-9 via NHCH2C6H4(p)CH2CH2NH) | – | 100 to 1000 nM
C[C@@H]1NC(=O)[C@H](Cc2c[nH]c3ccc(F)cc23)NC(=O)[C@H](Cc2c[nH]c3ccc(F)cc23)NC(=O)[C@@H](C)NC(=O)[C@H](CCCCN)NC(=O)CCSCc2cccc(c2)CSC[C@@H](C(N)=O)NC(=O)[C@]2(C)CCCN2C(=O)[C@H](Cc2ccc(O)cc2)NC(=O)C2=CN=C1S2 [Compound 460] ([Mpa]K[dA][Trp(5-F)][Trp(5-F)][X64]Y[αMeP]C-NH2; linker 1-9 via mXylylene) | – | 0.11 to 100 nM
COc1ccc(C[C@@H]2NC(=O)[C@H](Cc3cnc[nH]3)NC(=O)[C@H](CC(=O)O)NC(=O)[C@H](Cc3c[nH]c4ccc(F)cc34)NC(=O)[C@H](Cc3c[nH]c4ccc(F)cc34)NC(=O)[C@@H](C)NC(=O)[C@H](CCCC[N+](C)(C)C)NC(=O)CCSCc3cccc(c3)CSCCNC(=O)[C@]3(C)CCCN3C2=O)cc1 [Compound 461] (cyclo(DHY(Me)[αMeP][X4][Lys(Me3)][dA][Trp(5-F)][Trp(5-F)])) | – | 21000 to 50000 nM
COc1ccc(C[C@@H]2NC(=O)[C@H](Cc3ncc[nH]3)NC(=O)[C@H](CC(=O)O)NC(=O)[C@H](Cc3c[nH]c4ccc(F)cc34)NC(=O)[C@H](Cc3c[nH]c4ccc(F)cc34)NC(=O)[C@@H](C)NC(=O)[C@H](CCCC[N+](C)(C)C)NC(=O)CCSCc3cc(F)cc(c3)CSCCNC(=O)[C@]3(C)CCCN3C2=O)cc1 [Compound 462] (cyclo(D[Ala(imidazol-2-yl)]Y(Me)[αMeP][X3][Lys(Me3)][dA][Trp(5-F)][Trp(5-F)])) | – | 1000 to 12100 nM
COc1ccc(C[C@@H]2NC(=O)[C@H](Cc3ncc[nH]3)NC(=O)[C@H](CC(=O)O)NC(=O)[C@H](Cc3c[nH]c4ccc(F)cc34)NC(=O)[C@H](Cc3c[nH]c4ccc(F)cc34)NC(=O)[C@@H](C)NC(=O)[C@H](CCCCN(C)C)NC(=O)CCSCc3cccc(c3)CSCCNC(=O)[C@]3(C)CCCN3C2=O)cc1 [Compound 463] (cyclo(D[Ala(imidazol-2-yl)]Y(Me)[αMeP][X4][Lys(Me2)][dA][Trp(5-F)][Trp(5-F)])) | – | 100 to 1000 nM
COc1ccc(C[C@@H]2NC(=O)[C@H](Cc3ncc[nH]3)NC(=O)[C@H](CC(=O)O)NC(=O)[C@H](Cc3c[nH]c4ccc(F)cc34)NC(=O)[C@H](Cc3c[nH]c4ccc(F)cc34)NC(=O)[C@@H](C)NC(=O)[C@H](CCCCN(C)C)NC(=O)CCSCc3cccc(c3)CSCCNC(=O)[C@]3(C)CCCN3C2=O)cc1 [Compound 464] (cyclo(D[Ala(imidazol-2-yl)]Y(Me)[αMeP][X4][Lys(Me2)][dA][Trp(5-F)][Trp(5-F)])) | – | 21000 to 50000 nM
COc1ccc(C[C@@H]2NC(=O)[C@H](Cc3ncc[nH]3)NC(=O)[C@H](CC(=O)O)NC(=O)[C@H](Cc3c[nH]c4ccc(F)cc34)NC(=O)[C@H](Cc3c[nH]c4ccc(F)cc34)NC(=O)[C@@H](C)NC(=O)[C@H](CCCCN(C)C)NC(=O)CCSCc3cc(F)cc(c3)CSCCNC(=O)[C@]3(C)CCCN3C2=O)cc1 [Compound 465] (cyclo(D[Ala(imidazol-2-yl)]Y(Me)[αMeP][X3][Lys(Me2)][dA][Trp(5-F)][Trp(5-F)])) | – | 1000 to 12100 nM
CNCCCC[C@@H]1NC(=O)CCSCc2cc(F)cc(c2)CSCCNC(=O)[C@]2(C)CCCN2C(=O)[C@H](Cc2ccc(OC)cc2)NC(=O)[C@H](Cc2ncc[nH]2)NC(=O)[C@H](CC(=O)O)NC(=O)[C@H](Cc2c[nH]c3ccc(F)cc23)NC(=O)[C@H](Cc2c[nH]c3ccc(F)cc23)NC(=O)[C@@H](C)NC1=O [Compound 468] (cyclo(D[Ala(imidazol-2-yl)]Y(Me)[αMeP][X3][Lys(Me)][dA][Trp(5-F)][Trp(5-F)])) | – | 1000 to 12100 nM
CC(=O)N[C@H]1CCCC/C=C/CO[C@@H]2CCN(C(=O)[C@H](Cc3ccc(O)cc3)NC(=O)[C@H](Cc3cnc[nH]3)NC(=O)[C@H](CC(=O)O)NC(=O)[C@H](Cc3c[nH]c4ccc(F)cc34)NC(=O)[C@H](Cc3c[nH]c4ccc(F)cc34)NC(=O)CNC(=O)[C@H](CCCCN)NC1=O)[C@@H]2C(N)=O [Compound 469] (Ac-[X12]KG[Trp(5-F)][Trp(5-F)]DHY[X58]-NH2; staple (E) 1-9) | – | 21000 to 50000 nM
COc1ccc(C[C@@H]2NC(=O)[C@H](Cc3cnc[nH]3)NC(=O)[C@H](CC(=O)O)NC(=O)[C@H](Cc3c[nH]c4ccc(F)cc34)NC(=O)[C@H](Cc3c[nH]c4ccc(F)cc34)NC(=O)[C@H](C)NC(=O)CCCCCC(=O)NCc3ccc(cc3)CCNC(=O)[C@]3(C)CCCN3C2=O)cc1 [Compound 470] (A[Trp(5-F)][Trp(5-F)]DHY(Me)[αMeP]; linker N-C via X55) | – | 0.11 to 100 nM
CC(=O)N[C@@H]1CCCC/C=C\CO[C@@H]2CCN(C(=O)[C@H](Cc3ccc(O)cc3)NC(=O)[C@H](Cc3cnc[nH]3)NC(=O)[C@H](CC(=O)O)NC(=O)[C@H](Cc3c[nH]c4ccc(F)cc34)NC(=O)[C@H](Cc3c[nH]c4ccc(F)cc34)NC(=O)CNC1=O)[C@@H]2C(N)=O [Compound 471] (Ac-[X57]G[Trp(5-F)][Trp(5-F)]DHY[X58]-NH2; staple (Z) 1-8) | – | 0.11 to 100 nM
CC(C)C[C@H]1C(=O)N[C@@H](Cc2ccc(O)cc2)C(=O)N2CCC[C@@]2(C)C(=O)N[C@H](C(N)=O)CSCc2cccc(c2)CSCCC(=O)N[C@@H](CCCCN)C(=O)NCC(=O)N[C@@H](Cc2c[nH]c3ccc(F)cc23)C(=O)N[C@@H](Cc2c[nH]c3ccc(F)cc23)C(=O)N[C@H]2CCN1C2=O [Compound 472] | – | 0.11 to 100 nM
COc1ccc(C[C@@H]2NC(=O)[C@@H]3CCCC(=O)N[C@@H]4C[C@H](C(=O)N3)N(C4)C(=O)[C@H](Cc3c[nH]c4ccc(F)cc34)NC(=O)[C@H](Cc3c[nH]c4ccc(F)cc34)NC(=O)[C@@H](C)NC(=O)[C@H](CCCCN)NC(=O)CCSCc3cccc(c3)CSCCNC(=O)[C@]3(C)CCCN3C2=O)cc1 [Compound 522] | – | 0.11 to 100 nM
COc1ccc(C[C@@H]2NC(=O)[C@H]([C@H](C)O)NC(=O)[C@@H]3CCCc4cn(nn4)CCCC[C@H](NC(=O)[C@@H](C)NC(=O)[C@H](CCCCN)NC(=O)CCSCc4cccc(c4)CSCCNC(=O)[C@]4(C)CCCN4C2=O)C(=O)N[C@@H](Cc2c[nH]c4ccc(F)cc24)C(=O)N3)cc1 [Compound 526] | – | 0.11 to 100 nM
